Experiments:
[1] = Qualitative solubility of the salts (observed on crystallisation from water); conditions: in water, partly relative to the salt of the other Articain enantiomer
[2] = Pharmacokinetics after intramuscular administration; antibiotic content in blood/serum by agar diffusion test; type: in vivo, Hund
Excerpt: Zur Bestimmung der pharmakokinetischen Eigenschaften der erfindungsgemäßen Cephalosporin-Articainsalze wurden unter […] Untersuchungen an Mäusen und Hunden durchgeführt. Die […] und die korrespondierenden Alkalisalze der Cephalosporine wurden in therapeutisch üblichen Dosierungen intramuskulär verabreicht. Zu festgelegten Zeitpunkten nach der Injektion des Antibiotikums wurden den Versuchstieren Blutproben entnommen und der Antibiotika-Gehalt im Blut bzw. Serum mit Hilfe des Agardiffusionstestes bestimmt. Die pharmakokinetischen […] Computerprogramms ermittelt.

Compound: CCCNC(C)C(=O)Nc1c(C)csc1C(=O)OC.CON=C(C(=O)NC1C(=O)N2C(C(=O)O)=C(COC(N)=O)CSC12)c1ccco1 (single isomer, unassigned; (+)) [(+) Articain-Cefuroximsalz]
- Löslichkeit [1]: schwerlösliche

Compound: CCCNC(C)C(=O)Nc1c(C)csc1C(=O)OC.CON=C(C(=O)NC1C(=O)N2C(C(=O)O)=C(COC(C)=O)CSC12)c1csc(N)n1 (single isomer, unassigned; (+)) [(+)-Articain-Cefotaxim, ( +)-Articain-Cefotaximsalz]
- Halbwertszeit ([2]; dog, in vivo, im): 4,1 Stunden

Compound: CCCNC(C)C(=O)Nc1c(C)csc1C(=O)OC.CON=C(C(=O)NC1C(=O)N2C(C(=O)O)=CCSC12)c1csc(N)n1 (single isomer, unassigned; (-)) [(-)-Articain-Ceftizoximsalz]
- Löslichkeit [1]: leichter löslich in Wasser

Compound: CCCCOC(=O)c1scc(C)c1NC(=O)C(C)NCCC.CO/N=C(\C(=O)N[C@@H]1C(=O)N2C(C(=O)O)=C(COC(C)=O)CS[C@H]12)c1csc(N)n1 [Beispiel 10, Cefotaximsalz von (+ )n-Butyl 4-methyl-3(2-n-propylaminopropionamido) thiophen-2-carboxylat]
- Halbwertszeit ([2]; Hund, intramuscular application, blood/serum level by agar diffusion test): 6,6 Stunden

Compound: CO/N=C(\C(=O)N[C@@H]1C(=O)N2C(C(=O)O)=C(COC(C)=O)CS[C@H]12)c1csc(N)n1 [Cefotaxim, reference compound]
- half-life ([2]; dog, im, Hund, intramuscular application, blood/serum level by agar diffusion test, read-out: Halbwertszeit (converted)): 48 min

— patent publication EP0603755A2, “Cephalosporin salts and processes for their preparation” (HOECHST AKTIENGESELLSCHAFT, priority 1992, dated 1994)
